Earlier results, collected in patent US11571385B2, “Self-emulsifiable composition, production method therefor, nanoemulsion, and production method therefor” (Kewpie Corporation, priority 2017, dated 2023).

Conditions: solubility in water, Japanese Pharmacopoeia class

Structure (SMILES)	solubility
COc1ccc2c(c1)c(CC(=O)O)c(C)n2C(=O)c1ccc(Cl)cc1 [Indomethacin, indomethacin]	almost not soluble
COc1ccc2c(c1)c(CC(=O)OCC(=O)O)c(C)n2C(=O)c1ccc(Cl)cc1 [Acemetacin, acemetacin]	almost not soluble
C=CC[C@@H]1/C=C(\C)C[C@H](C)C[C@H](OC)[C@H]2O[C@@](O)(C(=O)C(=O)N3CCCC[C@H]3C(=O)O[C@H](/C(C)=C/[C@@H]3CC[C@@H](O)[C@H](OC)C3)[C@H](C)[C@@H](O)CC1=O)[C@H](C)C[C@@H]2OC [Tacrolimus, tacrolimus]	almost not soluble
